Results as given in PubChem BioAssay (NCI).
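Growth conditions: 96-well plates. Treatment: test compound, 48 hours, 5 concentrations. Analysis: linear interpolation between bracketing concentrations; unreached endpoints set to highest concentration. TGI is the concentration that stops growth completely.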

What was measured:
Assay in all cases: NCI tumour cell line growth inhibition, 48 h
LOX IMVI melanoma = tested on: LOX IMVI melanoma
DU-145 prostate = tested on: DU-145 prostate
IGROV1 ovarian = tested on: IGROV1 ovarian
NCI-H226 lung = tested on: NCI-H226 lung
SK-MEL-28 melanoma = tested on: SK-MEL-28 melanoma
SR leukemia = tested on: SR leukemia
SK-MEL-2 melanoma = tested on: SK-MEL-2 melanoma
MDA-MB-231 breast = tested on: MDA-MB-231 breast
OVCAR-8 ovarian = tested on: OVCAR-8 ovarian
786-0 renal = tested on: 786-0 renal

Measured: TGI

COc1ccc(/C=C/NC=O)cc1
> 100 µM: all assays above
